Reference: patent US11040981B2, “Pyrrolotriazine compounds and methods of inhibiting TAM kinases” (Syros Pharmaceuticals, Inc., priority 2017, dated 2021)

Columns and labels:
TYRO3 = target: T1, TYRO3 (Homo sapiens, UniProt Q06418); assay: TR-FRET kinase activity assay, TYRO3; format: biochemical; details: ATP at Km, 60 minutes
T1 sequence (Q06418 41-890): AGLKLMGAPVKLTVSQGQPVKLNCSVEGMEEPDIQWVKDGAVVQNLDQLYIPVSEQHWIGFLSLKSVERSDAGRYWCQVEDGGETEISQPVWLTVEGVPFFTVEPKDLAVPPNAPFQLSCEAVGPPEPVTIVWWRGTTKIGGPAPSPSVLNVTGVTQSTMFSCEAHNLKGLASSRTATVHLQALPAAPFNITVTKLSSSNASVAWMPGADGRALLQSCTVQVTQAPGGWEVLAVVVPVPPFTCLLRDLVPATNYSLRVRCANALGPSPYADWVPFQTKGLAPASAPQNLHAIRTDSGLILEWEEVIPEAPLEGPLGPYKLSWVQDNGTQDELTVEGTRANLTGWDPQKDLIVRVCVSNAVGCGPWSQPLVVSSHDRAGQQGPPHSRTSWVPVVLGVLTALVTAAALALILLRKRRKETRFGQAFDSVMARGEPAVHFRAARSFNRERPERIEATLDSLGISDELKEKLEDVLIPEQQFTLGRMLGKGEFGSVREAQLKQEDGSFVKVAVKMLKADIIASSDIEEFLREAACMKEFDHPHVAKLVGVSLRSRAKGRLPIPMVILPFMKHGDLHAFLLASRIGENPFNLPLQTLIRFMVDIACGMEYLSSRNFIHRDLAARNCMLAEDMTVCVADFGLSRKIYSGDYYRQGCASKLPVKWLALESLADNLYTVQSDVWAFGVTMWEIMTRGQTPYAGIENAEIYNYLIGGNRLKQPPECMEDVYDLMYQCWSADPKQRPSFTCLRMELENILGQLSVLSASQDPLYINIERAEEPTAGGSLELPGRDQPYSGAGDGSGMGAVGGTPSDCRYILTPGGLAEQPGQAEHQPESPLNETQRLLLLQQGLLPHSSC
Summary of the method: (§1)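 Inhibition is measured as loss of phospho-peptide formation: kinase, fluorescent tyrosine peptide and compound are combined, ATP is added at Km, and the reaction proceeds 60 min at RT in pH 7.5 HEPES buffer. An EDTA stop and Eu-labelled phospho-specific antibody allow TR-FRET detection for IC50 fitting.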

MERTK = target: T2, MERTK (Homo sapiens, UniProt Q12866); assay: TR-FRET kinase activity assay, MERTK; format: biochemical; details: for IC50: TR-FRET activity assay, ATP at Km, 60 minutes, read-out: Mer IC50; for FLT3/Mer ratio (FLT3 IC50/Mer IC50): ratio calculated as FLT3 IC50/Mer IC50
T2 sequence (Q12866 21-999): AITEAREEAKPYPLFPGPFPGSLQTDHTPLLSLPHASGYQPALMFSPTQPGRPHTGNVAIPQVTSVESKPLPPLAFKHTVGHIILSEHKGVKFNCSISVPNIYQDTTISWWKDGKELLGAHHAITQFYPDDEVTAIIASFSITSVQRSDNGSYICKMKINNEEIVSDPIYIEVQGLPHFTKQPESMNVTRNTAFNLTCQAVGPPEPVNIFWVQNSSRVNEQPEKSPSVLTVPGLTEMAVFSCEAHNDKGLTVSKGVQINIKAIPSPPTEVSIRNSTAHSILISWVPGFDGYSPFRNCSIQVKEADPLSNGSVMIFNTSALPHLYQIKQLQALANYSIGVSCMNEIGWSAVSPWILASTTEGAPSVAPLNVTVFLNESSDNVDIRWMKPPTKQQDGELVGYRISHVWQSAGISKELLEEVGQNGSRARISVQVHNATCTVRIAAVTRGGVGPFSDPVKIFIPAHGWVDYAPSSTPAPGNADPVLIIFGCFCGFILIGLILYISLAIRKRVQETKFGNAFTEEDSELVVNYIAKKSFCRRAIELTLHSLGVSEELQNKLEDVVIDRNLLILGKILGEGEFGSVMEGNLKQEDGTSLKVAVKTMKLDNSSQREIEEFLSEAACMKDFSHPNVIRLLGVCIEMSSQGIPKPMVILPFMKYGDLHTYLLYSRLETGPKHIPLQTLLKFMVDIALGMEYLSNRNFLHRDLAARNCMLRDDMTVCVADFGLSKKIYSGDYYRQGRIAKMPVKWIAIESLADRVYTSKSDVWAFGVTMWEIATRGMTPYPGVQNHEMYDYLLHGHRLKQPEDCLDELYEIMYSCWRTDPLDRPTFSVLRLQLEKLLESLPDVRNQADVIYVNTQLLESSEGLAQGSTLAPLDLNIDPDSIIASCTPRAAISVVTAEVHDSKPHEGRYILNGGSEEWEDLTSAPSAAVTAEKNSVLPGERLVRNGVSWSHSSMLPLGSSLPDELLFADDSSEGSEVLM
Summary of the method: as §1

Row | Compound | IC50 (TYRO3) [nM] | IC50 (MERTK) [nM] | FLT3/Mer ratio (FLT3 IC50/Mer IC50) (MERTK)
1 | COC[C@H](C)Nc1ncc2c(-c3cnn(C(C)(C)C(=O)N4Cc5nc(C)sc5C4)c3)cc([C@H]3CC[C@H](O)CC3)n2n1 [Compound 495] | ≤ 100 | ≤ 100 | +++ (“+++” represents a ratio of >100)
2 | COC[C@H](C)Nc1ncc2c(-c3cnn(C(C)(C)C(=O)C4CCc5sc(C)nc5C4)c3)cc([C@H]3CC[C@H](O)CC3)n2n1 (stereo partly drawn) [Compound 496] | ≤ 100 | ≤ 100 | +++ (“+++” represents a ratio of >100)
3 | COC[C@H](C)Nc1ncc2c(CC#N)cc([C@H]3CC[C@H](O)CC3)n2n1 [Compound 497] | ≤ 100 | ≤ 100 | +++ (“+++” represents a ratio of >100)
4 | COC[C@H](C)Nc1ncc2c(-c3cccc(C4CCc5nc(C)[nH]c5C4)c3)cc([C@H]3CC[C@H](O)CC3)n2n1 (stereo partly drawn) [Compound 498] | ≤ 100 | ≤ 100 | +++ (“+++” represents a ratio of >100)
5 | C[C@@H](CC(F)(F)F)Nc1ncc2c(C3=C[C@@H]4CC[C@H](C3)N4)cc([C@H]3CC[C@H](O)CC3)n2n1 [Compound 499] | ≤ 100 | ≤ 100 | +++ (“+++” represents a ratio of >100)
6 | COC[C@H](C)Nc1ncc2c(-c3ccnc(N4CCN(C(=O)C5COC5)CC4)c3)cc([C@H]3CC[C@H](O)CC3)n2n1 [Compound 500] | ≤ 100 | ≤ 100 | +++ (“+++” represents a ratio of >100)
7 | COC[C@H](C)Nc1ncc2c(-c3cnn(C4COC4)c3)cc(-c3ccc(O)nc3)n2n1 [Compound 501] | ≤ 100 | ≤ 100 | ++ (“++” represents a ratio of between 10 and 100)
8 | COC[C@H](C)Nc1ncc2c(-c3cnn(C4COC4)c3)cc(-c3ccc(OC)cc3)n2n1 [Compound 502] | ≤ 100 | ≤ 100 | ++ (“++” represents a ratio of between 10 and 100)
9 | COC[C@H](C)Nc1ncc2c(-c3cnn(C4COC4)c3)cc(C3CCOCC3)n2n1 [Compound 503] | ≤ 100 | ≤ 100 | +++ (“+++” represents a ratio of >100)
10 | COC[C@H](C)Nc1ncc2c(-c3ccnc(N4CCN(C(=O)OC5COC5)CC4)c3)cc([C@H]3CC[C@H](O)CC3)n2n1 [Compound 504] | ≤ 100 | ≤ 100 | +++ (“+++” represents a ratio of >100)
11 | COC[C@H](C)Nc1ncc2c(-c3ccnc(F)c3)cc([C@H]3CC[C@H](O)CC3)n2n1 [Compound 505] | ≤ 100 | ≤ 100 | +++ (“+++” represents a ratio of >100)
12 | COC[C@H](C)Nc1ncc2c(-c3cnn(CC(C)(C)N4CCOCC4)c3)cc([C@H]3CC[C@H](O)CC3)n2n1 [Compound 507] | ≤ 100 | ≤ 100 | +++ (“+++” represents a ratio of >100)
13 | COC[C@H](C)Nc1ncc2c(-c3conc3C)cc([C@H]3CC[C@H](O)CC3)n2n1 [Compound 508] | ≤ 100 | ≤ 100 | +++ (“+++” represents a ratio of >100)
14 | COC[C@H](C)Nc1ncc2c(-c3ccnc(N4CCc5nc(C)sc5C4)c3)cc([C@H]3CC[C@H](O)CC3)n2n1 [Compound 509] | ≤ 100 | ≤ 100 | +++ (“+++” represents a ratio of >100)
